Experimental data taken from US9170257B2 (priority 2012, dated 2015).

Key:
in vivo [1] = format: in vivo, Beagle dogs; details: dog, in vivo, iv, 10 mg/kg
Protocol: (§1) The results and analysis for the study are presented for intravenous infusion dosing of a total dose of 10 mg/kg infused over a period of either 2 or 8 hours. Plasma levels of curcumin and its metabolite, THC were measured at timed intervals post-dosing.
For the 2 hour infusion, blood samples were taken at predose and 0.25, 0.5, 1.5 and at 2 hours during infusion and at 15 minutes post-infusion. For the 8 hour infusion, blood samples were taken at predose and 0.25, 0.5, 1.5, […] and at 8 hours during infusion and at 15 minutes post-infusion.
(§2) Bioanalysis was performed on two sets of samples, one set that was treated with phosphoric acid and one set that was not treated with phosphoric acid. […] Values that were below the limit of quantification were assigned a value of 0.
Plasma concentration vs. time profiles were analyzed using (unless otherwise stated) the data from 4 dogs. Plasma profiles for the test articles are presented as the mean data±SE of 4 dogs. Average plasma concentrations were used to perform the PK analysis. Plasma concentration vs. time profiles were analyzed and the PK parameters estimated using WinNonlin Version 5.2.1 employing the intravenous infusion model with first order elimination. Unless stated otherwise, the plasma concentration-time profiles for the test articles are presented as the mean data±SE of 4 dogs.

in vivo [2] = format: in vivo, Beagle dogs; details: dog, in vivo
Protocol: as §1, §2
(§3) Fifteen minutes following either the 2 hour or 8 hour infusion, blood, urine and bile samples were taken, prior to the dogs being necropsied and organs removed for the isolation of tissues. Multiple samples of tissue weighing approximately 1 gram were removed and snap frozen in the presence or absence of phosphoric acid (H3PO4). For all tissue samples, the levels of curcumin and THC were determined using a method developed by the Bioanalytical Department at Nucro-Technics. […] Values that were below the limit of quantification were assigned a value of 0. […] Tissue distribution data was analyzed using, unless stated, the data from 4 dogs and are presented as the mean±standard error (S.E.).

in vivo [3] = test: in vivo; parameters: species or system Beagle dogs; details: dog, in vivo; for concentration at 15 min post-infusion / concentration at 15 min / Kp at 2 h / Kp at 8 h: both sexes; for Kp at 2 h / Kp at 8 h: Kp [tissue]/[plasma]
Protocol: The test article will be administered to 8 Beagle dogs by intravenous infusion over two hours (Part A) or eight hours (Part B) as shown in Table 6.
as §3, with “Multiple” for “Fifteen minutes following either the 2 hour or 8 hour infusion, blood, urine and bile samples were taken, prior to the dogs being necropsied and organs removed for the isolation of tissues. Multiple”

[4] = rat, rodent studies; cited from earlier work
[5] = test system: MPTP-induced depletion of DA and DOPAC; details: 80 mg/kg i.p.; cited from earlier work

COc1cc(/C=C/C(=O)CC(=O)/C=C/c2ccc(O)c(OC)c2)ccc1O [Curcumin, 1,7-bis(4-hydroxy-3-methoxyphenyl)-1,6-heptadiene-3,5-dione, reference compound]
clearance (in vivo [1]; both sexes, Beagle): 343 mL/min/kg
Cmax (in vivo [1]; both sexes, Beagle, Cmax): 15 ng/mL
MRT (in vivo [1]; both sexes, beagle): 36 min
Vd (in vivo [1]; both sexes, beagle): 12.7 L/kg
clearance (in vivo [1]; both sexes, beagle): 343 mL/min/kg
half-life (in vivo [1]; both sexes, beagle): 24 min
AUC (in vivo [1]; both sexes, beagle, AUC): 65 ng·h/mL
AUC (in vivo [1]; both sexes, beagle, AUC (estimated PK parameter)): 485 ng·h/mL
Cmax (in vivo [1]; both sexes, beagle, Cmax): 46 ng/mL
Cmax (in vivo [1]; both sexes, beagle, Cmax (estimated PK parameter)): 233 ng/mL
AUC (in vivo [1]; both, Beagle): 52 ng·h/mL
Ke (in vivo [1]; both, Beagle): 1.6 h⁻¹
concentration at 15 min (in vivo [2]; both sexes, Beagle, Plasma level): 0 ng/mL
Plasma level (in vivo [2]; both, beagle, 15 min): 0 ± 0 ng/mL
concentration at 15 min post-infusion (in vivo [3]; Beagle, Tissue analysis, Liver): 28.4 ng/g
concentration at 15 min post-infusion (in vivo [3]; Beagle, Tissue analysis, Spleen): 22.9 ng/g
concentration at 15 min (in vivo [3]; Beagle, Tissue level, Brain Stem): 0.3 ng/g
concentration at 15 min (in vivo [3]; beagle, Average tissue concentration, Bladder): 0.66 ng/g
concentration at 15 min (in vivo [3]; beagle, Average tissue concentration, Brainstem): 0.45 ng/g
concentration at 15 min (in vivo [3]; beagle, Average tissue concentration, Heart): 0.47 ng/g
concentration at 15 min (in vivo [3]; beagle, Average tissue concentration, Intestinal wall): 1.14 ng/g
concentration at 15 min (in vivo [3]; beagle, Average tissue concentration, Striatum): 0.48 ng/g
Kp at 2 h (in vivo [3]; beagle, Brain Stem): 0.0081
Kp at 8 h (in vivo [3]; beagle, Brain Stem): 0.0389
Kp at 2 h (in vivo [3]; beagle, Cortex, Brain): 0.0134
Kp at 8 h (in vivo [3]; beagle, Cortex, Brain): 0.0544
Kp at 2 h (in vivo [3]; beagle, Heart): 0.0087
Kp at 8 h (in vivo [3]; beagle, Heart): 0.0503
Kp at 2 h (in vivo [3]; beagle, Hippocampus): 0.0016
Kp at 8 h (in vivo [3]; beagle, Hippocampus): 0.0007
Kp at 2 h (in vivo [3]; beagle, Intestinal Wall): 0.0206
Kp at 8 h (in vivo [3]; beagle, Intestinal Wall): 0.0564
Kp at 2 h (in vivo [3]; beagle, Kidney): 0.0161
Kp at 8 h (in vivo [3]; beagle, Kidney): 0.186
Kp at 2 h (in vivo [3]; beagle, Liver): 0.0329
Kp at 8 h (in vivo [3]; beagle, Liver): 1.9
Kp at 2 h (in vivo [3]; beagle, Lungs): 0.413
Kp at 8 h (in vivo [3]; beagle, Lungs): 16.8
Kp at 2 h (in vivo [3]; beagle, Muscle): 0.0034
Kp at 8 h (in vivo [3]; beagle, Muscle): 0.053
Kp at 2 h (in vivo [3]; beagle, Pancreas): 0.0166
Kp at 8 h (in vivo [3]; beagle, Pancreas): 0.191
Kp at 2 h (in vivo [3]; beagle, Striatum): 0.0087
Kp at 8 h (in vivo [3]; beagle, Striatum): 0.0329
Kp at 2 h (in vivo [3]; beagle, Urinary Bladder): 0.0125
Kp at 8 h (in vivo [3]; beagle, Urinary Bladder): 0.152
concentration at 15 min (in vivo [3]; beagle, Tissue analysis, Brainstem): 0.45 ng/g
concentration at 15 min (in vivo [3]; beagle, Tissue analysis, Cortex): 0.73 ng/g
concentration at 15 min (in vivo [3]; beagle, Tissue level, Cortex, Brain): 0.52 ng/g
concentration at 15 min (in vivo [3]; beagle, Tissue level, Heart): 0.49 ng/g
Average tissue concentration, Bladder (in vivo [3]; both, beagle, 15 min): 0.87 ng/gm
Average tissue concentration, Brainstem (in vivo [3]; both, beagle, 15 min): 0.57 ng/gm
Average tissue concentration, Cortex (in vivo [3]; both, beagle, 15 min): 0.80 ng/gm
Average tissue concentration, Heart (in vivo [3]; both, beagle, 15 min): 0.74 ng/gm
Average tissue concentration, Striatum (in vivo [3]; both, beagle, 15 min): 0.49 ng/gm
Tissue analysis, Brainstem (in vivo [3]; both, beagle, 15 min): 0.32
Tissue analysis, Cortex (in vivo [3]; both, beagle, 15 min): 0.52
Tissue level, Brain Stem (in vivo [3]; both, beagle, 15 min): 0.41 ng/g
Tissue level, Cortex, Brain (in vivo [3]; both, beagle, 15 min): 0.72 ng/g
Tissue level, Heart (in vivo [3]; both, beagle, 15 min): 0.67 ng/g
Kp [tissue]/[plasma], Liver (in vivo [3]; both, beagle, 8 h): 1.9047
Kp [tissue]/[plasma], Lungs (in vivo [3]; both, beagle, 8 h): 16.8289
Kp values [4]: 0.06-0.25
MPTP-induced depletion of DA and DOPAC [5]: significantly reversed
